Key:
Format in all cases: in vivo
Solanum nigrum (SOLNI) [1] = test: Example B post-emergence herbicidal test, glasshouse; conditions: 312 h, rate 1000 g/ha, evaluated after 13 days, read-out: Post-Emergence Activity SOLNI (100=total damage to plant; 0=no damage to plant)
Protocol: (§1) Seeds of a variety of test species were sown in standard soil in pots. After cultivation for one day (pre-emergence) or after 8 days cultivation (post-emergence) under controlled conditions in a glasshouse (at 24/16° C., day/night; 14 hours light; 65% humidity), the plants were sprayed with an aqueous spray solution derived from the formulation of the technical active ingredient in acetone/water (50:50) solution containing 0.5% Tween 20 (polyoxyethelyene sorbitan monolaurate, CAS RN 9005-64-5). The test plants were then grown in a glasshouse under controlled conditions in a glasshouse (at 24/16° C., day/night; 14 hours light; 65% humidity) and watered twice daily. After 13 days for pre and post-emergence, the test was evaluated (100=total damage to plant; 0=no damage to plant). Test Plants: Alopecurus myosuroides (ALOMY), Avena fatua (AVEFA), Setaria faberi (SETFA), Echinochloa crus-galli (ECHCG), Solanum nigrum (SOLNI) and Amaranthus retoflexus (AMARE)

[2] = tested on: Amaranthus retoflexus (AMARE); test: as above; conditions: Amaranthus retroflexus, 312 h, evaluated after 13 days, read-out: Post-Emergence Activity AMARE (100=total damage to plant; 0=no damage to plant); for pest or weed control at 1000 g/ha: rate 1000 g/ha; for pest or weed control at 250 g/ha: rate 250 g/ha
Protocol: as §1

Setaria faberi (SETFA) [3] = test: as above; conditions: 312 h, evaluated after 13 days; for pest or weed control at 1000 g/ha: rate 1000 g/ha, read-out: Post-Emergence Activity SETFA (100=total damage to plant; 0=no damage to plant); for pest or weed control at 250 g/ha: rate 250 g/ha, read-out: Post-Emergence Activity SEFTA (100=total damage to plant; 0=no damage to plant)
Protocol: as §1

Avena fatua (AVEFA) [4] = test: as above; conditions: 312 h, evaluated after 13 days, read-out: Post-Emergence Activity AVEFA (100=total damage to plant; 0=no damage to plant); for pest or weed control at 1000 g/ha: rate 1000 g/ha; for pest or weed control at 250 g/ha: rate 250 g/ha
Protocol: as §1

[5] = tested on: Echinochloa crus-galli (ECHCG); test: as above; conditions: 312 h, evaluated after 13 days; for pest or weed control at 1000 g/ha: rate 1000 g/ha, read-out: Post-Emergence Activity ECHCG (100=total damage to plant; 0=no damage to plant); for pest or weed control at 250 g/ha: rate 250 g/ha, read-out: Post-Emergence Activity ECHGG (100=total damage to plant; 0=no damage to plant)
Protocol: as §1

[6] = tested on: Alopecurus myosuroides (ALOMY); test: as above; conditions: 312 h, evaluated after 13 days, read-out: Post-Emergence Activity ALOMY (100=total damage to plant; 0=no damage to plant); for pest or weed control at 1000 g/ha: rate 1000 g/ha; for pest or weed control at 250 g/ha: rate 250 g/ha
Protocol: as §1

Solanum nigrum (SOLNI) [7] = test: Example B pre-emergence herbicidal test, glasshouse; conditions: rate 1000 g/ha, evaluated after 13 days, 100=total damage to plant, 0=no damage to plant
Protocol: as §1

[8] = tested on: Amaranthus retoflexus (AMARE); test: as above; conditions: Amaranthus retroflexus, 312 h, evaluated after 13 days, 100=total damage to plant, 0=no damage to plant; for pest or weed control at 1000 g/ha: rate 1000 g/ha; for pest or weed control at 250 g/ha: rate 250 g/ha
Protocol: as §1

Setaria faberi (SETFA) [9] = test: as above; conditions: evaluated after 13 days, 100=total damage to plant, 0=no damage to plant; for Pre-Emergence Activity SETFA: rate 1000 g/ha; for pest or weed control at 250 g/ha: Setaria faberi, 312 h, rate 250 g/ha, read-out: Pre-Emergence Activity SEFTA
Protocol: as §1

Avena fatua (AVEFA) [10] = test: as above; conditions: 312 h, evaluated after 13 days, 100=total damage to plant, 0=no damage to plant; for pest or weed control at 1000 g/ha: rate 1000 g/ha; for pest or weed control at 250 g/ha: rate 250 g/ha
Protocol: as §1

[11] = tested on: Echinochloa crus-galli (ECHCG); test: as above; conditions: evaluated after 13 days, 100=total damage to plant, 0=no damage to plant; for Pre-Emergence Activity ECHCG: rate 1000 g/ha; for pest or weed control at 250 g/ha: Echinochloa crus-galli, 312 h, rate 250 g/ha, read-out: Pre-Emergence Activity ECHGG
Protocol: as §1

[12] = tested on: Alopecurus myosuroides (ALOMY); test: as above; conditions: 312 h, evaluated after 13 days, 100=total damage to plant, 0=no damage to plant; for pest or weed control at 1000 g/ha: rate 1000 g/ha; for pest or weed control at 250 g/ha: rate 250 g/ha
Protocol: as §1

SMILES	pest or weed control at 1000 g/ha (Solanum nigrum (SOLNI) [1])	pest or weed control at 1000 g/ha [2]	pest or weed control at 1000 g/ha (Setaria faberi (SETFA) [3])	pest or weed control at 1000 g/ha (Avena fatua (AVEFA) [4])	pest or weed control at 1000 g/ha [5]	pest or weed control at 1000 g/ha [6]	Pre-Emergence Activity SOLNI (Solanum nigrum (SOLNI) [7])	pest or weed control at 1000 g/ha [8]	Pre-Emergence Activity SETFA (Setaria faberi (SETFA) [9])	pest or weed control at 1000 g/ha (Avena fatua (AVEFA) [10])	pest or weed control at 250 g/ha [2]	pest or weed control at 250 g/ha (Setaria faberi (SETFA) [3])	pest or weed control at 250 g/ha (Avena fatua (AVEFA) [4])	pest or weed control at 250 g/ha [5]	pest or weed control at 250 g/ha [6]	pest or weed control at 250 g/ha [8]	pest or weed control at 250 g/ha (Setaria faberi (SETFA) [9])	pest or weed control at 250 g/ha (Avena fatua (AVEFA) [10])	pest or weed control at 250 g/ha [11]	pest or weed control at 250 g/ha [12]	other results
COC(=O)c1ccc(-c2cc(C3C(=O)C(C)(C)OC(C)(C)C3=O)c(C)s2)cc1 [Compound T20]	0%	0%	10%	0%	0%	0%	70	80%	0	0%											Pre-Emergence Activity ECHCG [11]: 0; pest or weed control at 1000 g/ha [12]: 30%
Cc1sc(-c2cc(Cl)ccc2Cl)nc1C1C(=O)C(C)(C)C(=O)C(C)(C)C1=O [Compound T10, 6-[2-(2,5-dichlorophenyl)-5-methylthiazol-4-yl]-2,2,4,4-tetramethyl-cyclohexane-1,3,5-trione]	20%	0%	80%	0%	70%	40%	0	0%	0	20%											Pre-Emergence Activity ECHCG [11]: 0; pest or weed control at 1000 g/ha [12]: 30%
Cc1sc(-c2ccc(Cl)c(C(F)(F)F)c2)nc1C1C(=O)C(C)(C)OC(C)(C)C1=O [Compound T15]	0%	0%	0%	0%	70%	40%															
Cc1sc(-c2ccc(F)cc2)nc1C1C(=O)C(C)(C)C(=O)C(C)(C)C1=O [Compound T8]	20%	0%	80%	0%	70%	40%	0	0%	0	20%											Pre-Emergence Activity ECHCG [11]: 0; pest or weed control at 1000 g/ha [12]: 30%
Cc1ocnc1C1C(=O)C(C)(C)C(=O)C(C)(C)C1=O [Compound T2]	40%	0%	0%	0%	0%	0%	60	50%	0	0%											Pre-Emergence Activity ECHCG [11]: 0; pest or weed control at 1000 g/ha [12]: 0%
Cc1sc(-c2ccc(Cl)cc2)nc1C1C(=O)C(C)(C)C(=O)C(C)(C)C1=O [Compound T1]	0%	0%	90%	80%	90%	90%															
CCc1sc(-c2ccc(Cl)cc2F)nc1C1C(=O)C(C)(C)OC(C)(C)C1=O [Compound T47]											0%	100%	100%	100%	100%	20%	90%	90%	70%	70%	
CCc1sc(-c2ccc(Cl)cc2)nc1C1C(=O)C2CCC(C)(O2)C1=O (stereo not shown) [Compound T50, 3-[2-(4-chloro-phenyl)-5-ethyl-thiazol-4-yl]-1-methyl-8-oxa-bicyclo[3.2.1]-octane-2,4-dione]											0%	100%	100%	100%	100%	0%	100%	90%	100%	90%	
CC(=O)OC1=C(c2sc(-c3ccc(Cl)cc3)nc2C)C(=O)C(C)(C)OC1(C)C [Compound P9]											30%	80%	80%	100%	90%	0%	40%	0%	50%	20%	
Cc1cnc(-c2ccc(Cl)cc2)nc1C1C(=O)C(C)(C)OC(C)(C)C1=O [Compound T71, 4-[2-(4-chlorophenyl)-5-methylpyrimidin-4-yl]-2,2,6,6-tetramethylpyran-3,5-dione]											0%	90%	40%	90%	20%	0%	50%	0%	60%	20%	
Cc1sc(-c2ccc(OC(F)F)cc2)nc1C1C(=O)C(C)(C)OC(C)(C)C1=O [Compound T60]											0%	90%	40%	90%	50%	0%	70%	0%	20%	40%	
Cc1sc(OCc2cnc(Br)s2)nc1C1C(=O)C(C)(C)OC(C)(C)C1=O [Compound T14]							0	0%	0	0%	0%	90%	0%	70%	40%	0%	50%	0%	0%	0%	Pre-Emergence Activity ECHCG [11]: 0; pest or weed control at 1000 g/ha [12]: 40%
CCc1sc(-c2ccc(OC(F)F)cc2)nc1C1C(=O)C(C)(C)OC(C)(C)C1=O [Compound T62]											0%	100%	100%	100%	100%	0%	100%	0%	60%	90%	

Source: patent US8956999B2, “Herbicides” (Syngenta Limited, priority 2007, dated 2015)
